Reference: EP4567031A1, “HPK1 INHIBITOR, PREPARATION METHOD THEREFOR, AND USE THEREOF” (Beijing Earthwise Technology Co., Ltd., priority 2022, dated 2024)
pEC50: −log10 of the molar value.

What follows are compounds tested on human Pan T cells (assay: Human Pan T cell IL-2 ELISA). Conditions: Anti-CD3 and Anti-CD28, 48 hours, supernatant IL-2 ELISA, read-out: IL-2 release, EC50.
Type: cell-based
Description: A compound was dissolved in DMSO to 10 mM, and then diluted three-fold with DMSO to 9 dosages in a 96-well plate. Then, 10 µL of the diluted compound sample was transferred to a 96-well plate with 90 µL of cell culture medium, and the plate was shaken for 5 minutes. Then, 5 µL of the diluted compound sample was transferred to a 96-well plate with 120 µL of cell culture medium, and the plate was shaken for 5 minutes. According to the experimental design diagram, 50 µL of the diluted compound sample was transferred to a cell plate. Final concentrations of the compound in this assay were 10000.00, 5000, 2500, 1250, 625, 312.5, 156.25, 78.125 and 39.063 nM.
The assay was conducted in a 96-well plate. On the first day of the assay, Anti-CD3 was added to the 96-well plate and incubated in a 4 °C refrigerator overnight. On the second day of the assay, human Pan T cells were recovered, centrifuged and counted. The cell density was adjusted to 1*10^6 cells/ml. Then, 100 µL of cells were added to the 96-well plate washed with PBS and added with Anti-CD3; according to the experimental design diagram, 50 µL of diluted Anti-CD28 and 50 µL of the diluted compound were added to each well, centrifuged, and the cell plate was placed and incubated in an incubator for 48 hours; after 48 hours, the plate was centrifuged and the supernatant was collected for IL-2 ELISA.
The signal value of light absorption was converted into a multiple. Multiple = sample value/the average value of control wells. The average value of control wells refers to the value measured in wells with DMSO added. EC50 values were calculated by XLFit (version 5.3.1.3) in Excel. Equation: Y=Bottom + (Top-Bottom) / (1 + (EC50/X) ^ HillSlope). Table 6. Results of cellular activity of the compounds
Compound `CC1CCCn2c(-c3cc4c(c5c3CNC5=O)Nc3ccc(N5CCOCC5)cc3C4(C)C)cnc21` (single isomer, unassigned) [Example 218] has a pEC50 of 7.72. With `COC1CCc2c(-c3cc4c(c5c3CNC5=O)Nc3ccc(N5CCOCC5)cc3C4(C)C)cncc21` (single isomer, unassigned) [Example 202] the pEC50 was 8.06.

Same assay, conditions: Homo sapiens, T-cell, 48 h, Anti-CD3 and Anti-CD28, supernatant IL-2 ELISA, read-out: IL-2 release, EC50
`COCC1CN(c2ccc3c(c2)C(C)(C)c2cc(-c4cnc5c(OC)nccn45)c4c(c2N3)C(=O)NC4)CCO1` (stereo not drawn) [Example 195] was tested, and the pEC50 was 8.43. Compound `CC1(C)c2cc(N3CCOCC3)ccc2Nc2c1cc(-c1cnc3nc(C4CC4)ccn13)c1c2C(=O)NC1` [Example 254] has a pEC50 of 7.55. For `CC1(C)c2cc(N3CCOC(C(C)(C)O)C3)ccc2Nc2c1cc(-c1cnn3cc(C#N)ccc13)c1c2C(=O)NC1` (single isomer, unassigned) [Example 145], the pEC50 was 8.19. For `COC1CCCn2c(-c3cc4c(c5c3CNC5=O)Nc3ccc(N5CCOC(C(C)(C)O)C5)cc3C4(C)C)cnc21` (stereo not drawn) [Example 102], the pEC50 was 7.97. With `CC1(C)c2cc(N3CCOCC3)ccc2Nc2c1cc(-c1cnc3cnccn13)c1c2C(=O)NC1` [Example 156] the pEC50 was 8.56. Work on `CC1(C)c2cc(N3CCOCC3)ccc2Nc2c1cc(-c1cnc3nc(N4CC(F)C4)ccn13)c1c2C(=O)NC1` [Example 247] yielded a pEC50 of 8.04. In the case of `CC1(C)c2cc(N3CCOC(C(C)(C)O)C3)ccc2Nc2c1cc(-c1cnn3ccccc13)c1c2C(=O)NC1` (stereo not drawn) [Example 122], the pEC50 was 8.37. `COc1ccc2c(-c3cc4c(c5c3CNC5=O)Nc3ccc(N5CCOC(C(C)(C)O)C5)cc3C4(C)C)cnn2c1` (single isomer, unassigned) [Example 157] was tested, and the pEC50 was 8.19. For `COC1CCCn2c(-c3cc4c(c5c3CNC5=O)Nc3ccc(N5CCOCC5)cc3C4(C)C)nnc21` (racemic) [Example 120], the pEC50 was 7.18. Compound `CC1(C)c2cc(N3CCOCC3)ccc2Nc2c1cc(-c1cnc3cc(N4CCC4)ccn13)c1c2C(=O)NC1` [Example 206] has a pEC50 of 7.00. Compound `COC1CCCn2c(-c3cc4c(c5c3CNC5=O)Nc3ccc(N5CCOC(C(C)(C)O)C5)cc3C4(C)C)cnc21` (single isomer, unassigned) [Example 132] has a pEC50 of 8.00. For `CC1(C)c2cc(N3CCOCC3)ccc2Nc2c1cc(-c1cnc3c(C(F)F)nccn13)c1c2C(=O)NC1` [Example 222], the pEC50 was 8.19. `COC1CCn2c(-c3cc4c(c5c3CNC5=O)Nc3ccc(N5CCOC(C(C)(C)O)C5)cc3C4(C)C)cnc2C1` (single isomer, unassigned) [Example 142] gave a pEC50 of 7.60. Compound `Cn1c(-c2cc3c(c4c2CNC4=O)Nc2ccc(N4CCOC(C(C)(C)O)C4)cc2C3(C)C)cnc1OC1CCOC1` (single isomer, unassigned) [Example 153] has a pEC50 of 7.33. Compound `Cc1c(-c2cc3c(c4c2CNC4=O)Nc2ccc(N4CCOC(C(C)(C)O)C4)cc2C3(C)C)cnn1C1CC1` (single isomer, unassigned) [Example 148] has a pEC50 of 7.66. Compound `CCOC1CCCn2c(-c3cc4c(c5c3CNC5=O)Nc3ccc(N5CCOCC5)cc3C4(C)C)cnc21` (single isomer, unassigned) [Example 136] has a pEC50 of 7.61. Compound `Cn1cnc2c(-c3cc4c(c5c3CNC5=O)Nc3ccc(N5CCOC(C(C)(C)O)C5)cc3C4(C)C)cncc21` (stereo not drawn) [Example 119] has a pEC50 of 8.07. For `CC(C)(O)c1ccn2c(-c3cc4c(c5c3CNC5=O)Nc3ccc(N5CCOCC5)cc3C4(C)C)cnc2c1` [Example 208], the pEC50 was 7.80. Compound `CC1(C)c2cc(N3CCOCC3)ccc2Nc2c1cc(-c1cnc3nc(N4CC(O)C4)ccn13)c1c2C(=O)NC1` [Example 253] has a pEC50 of 7.27. Work on `CC1(C)c2cc(N3CCOC(C(C)(C)O)C3)ccc2Nc2c1cc(-c1cnc3cc(Cl)ccn13)c1c2C(=O)NC1` (stereo not drawn) [Example 100] yielded a pEC50 of 7.88. `COC1CCCn2c(-c3cc4c(c5c3CNC5=O)Nc3c(F)cc(N5CCOCC5)cc3C4(C)C)cnc21` (single isomer, unassigned) [Example 178] was tested, and the pEC50 was 7.72. `CC1(C)c2cc(N3CCOCC3)ccc2Nc2c1cc(-c1cnc3n1CCCC3OC1CC1)c1c2C(=O)NC1` (single isomer, unassigned) [Example 187] was tested, and the pEC50 was 7.82. `CCC1(C)c2cc(N3CCOCC3)ccc2Nc2c1cc(-c1cnc3n1CCCC3OC)c1c2C(=O)NC1` (single isomer, unassigned) [Example 159] gave a pEC50 of 7.63. `COc1nccn2c(-c3cc4c(c5c3CNC5=O)Nc3ccc(N5C6CCC5COC6)cc3C4(C)C)cnc12` [Example 232] showed a pEC50 of 7.96. In the case of `CC1(C)c2cc(-c3cnn4cccnc34)c3c(c2Nc2cc(F)c(N4CCOCC4)c(F)c21)C(=O)NC3` [Example 116], the pEC50 was 7.19. For `Cc1nccn2c(-c3cc4c(c5c3CNC5=O)Nc3ccc(N5CCOCC5)cc3C4(C)C)cnc12` [Example 173], the pEC50 was 8.42. With `Cn1c(-c2cc3c(c4c2CNC4=O)Nc2ccc(N4CCOC(C(C)(C)O)C4)cc2C3(C)C)cnc1C1CCOC1` (single isomer, unassigned) [Example 147] the pEC50 was 7.37. `CC1(C)c2cc(N3CCOCC3)ccc2Nc2c1cc(-c1cnc3c(F)c(C#N)ccn13)c1c2C(=O)NC1` [Example 198] gave a pEC50 of 8.28. With `COC1CCCn2c(-c3nc4c(c5c3CNC5=O)Nc3ccc(N5CCOCC5)cc3C4(C)C)cnc21` (single isomer, unassigned) [Example 279] the pEC50 was 6.77. `CC1(C)c2cc(N3CCOCC3)ccc2Nc2c1cc(-c1cnc3c(F)c(C(F)F)ccn13)c1c2C(=O)NC1` [Example 193] gave a pEC50 of 8.02. `CC1(C)c2cc(N3CCOCC3)ccc2Nc2c1cc(-c1cnc3nc(C(F)F)ccn13)c1c2C(=O)NCC1` [Example 282] was tested, and the pEC50 was 7.36. `CC1(C)c2cc(N3CCOC(C(C)(C)O)C3)ccc2Nc2c1cc(-c1cnc3cc(C(F)F)ccn13)c1c2C(=O)NC1` (stereo not drawn) [Example 113] was tested, and the pEC50 was 7.86. Work on `COc1c(F)ccn2c(-c3cc4c(c5c3CNC5=O)Nc3ccc(N5CCOCC5)cc3C4(C)C)cnc12` [Example 209] yielded a pEC50 of 8.48. `COC1CCCn2c(-c3cc4c(c5c3CNC5=O)Nc3cc(C#N)c(N5CCOCC5)cc3C4(C)C)cnc21` (single isomer, unassigned) [Example 175] showed a pEC50 of 7.85. `COCC1(O)CCN(c2ccc3c(c2)C(C)(C)c2cc(-c4cnc5c(OC)nccn45)c4c(c2N3)C(=O)NC4)CC1` [Example 200] gave a pEC50 of 8.85. In the case of `CC1(C)c2cc(N3CCOCC3)ccc2Nc2c1cc(-c1cnc3c(OC4COC4)nccn13)c1c2C(=O)NC1` [Example 184], the pEC50 was 7.85. `Cn1c(-c2cc3c(c4c2CNC4=O)Nc2ccc(N4CCOC(C(C)(C)O)C4)cc2C3(C)C)cnc1C1CCOCC1` (single isomer, unassigned) [Example 141] showed a pEC50 of 7.06. `CC1(C)c2cc(N3CCOCC3)ccc2Nc2c1cc(-c1cnc3cc(C#N)ccn13)c1c2C(=O)NC1` [Example 165] showed a pEC50 of 8.32. For `COc1nccn2c(-c3cc4c(c5c3CNC5=O)Nc3ccc(N5CCN6CCOCC6C5)cc3C4(C)C)cnc12` (stereo not drawn) [Example 194], the pEC50 was 8.37. `COc1nccn2c(-c3cc4c(c5c3CNC5=O)Nc3ccc(N5CCOCC5=O)cc3C4(C)C)cnc12` [Example 238] showed a pEC50 of 7.24. For `CC1(C)c2cc(-c3cnc4cc(F)ccn34)c3c(c2Nc2ccc(N4CCOC(C(C)(C)O)C4)c(F)c21)C(=O)NC3` (stereo not drawn) [Example 124], the pEC50 was 7.81. `CC1(C)c2cc(N3CCOCC3)ccc2Nc2c1cc(-c1nnc3cc(C#N)ccn13)c1c2C(=O)NC1` [Example 249] was tested, and the pEC50 was 8.33. `Cc1ccn2c(-c3cc4c(c5c3CNC5=O)Nc3ccc(N5CCOC(C(C)(C)O)C5)cc3C4(C)C)cnc2c1` (single isomer, unassigned) [Example 106] showed a pEC50 of 7.74. `Cc1c(-c2cc3c(c4c2CNC4=O)Nc2ccc(N4CCOCC4)cc2C3(C)C)cnc2c1NCCO2` [Example 251] gave a pEC50 of 8.19. Compound `COc1cc2c(cc1N1CCOCC1)C(C)(C)c1cc(-c3cnc4n3CCCC4OC)c3c(c1N2)C(=O)NC3` (single isomer, unassigned) [Example 182] has a pEC50 of 7.70. With `COc1c(F)ccn2c(-c3cc4c(c5c3CNC5=O)Nc3ccc(N5CCOC(C(C)(C)O)C5)cc3C4(C)C)cnc12` (single isomer, unassigned) [Example 127] the pEC50 was 7.91. `COc1nccn2c(-c3cc4c(c5c3CNC5=O)Nc3ccc(C5CNC(=O)C5)cc3C4(C)C)cnc12` (stereo not drawn) [Example 255] gave a pEC50 of 8.30. `CCOc1nccn2c(-c3cc4c(c5c3CNC5=O)Nc3ccc(N5CCOCC5)cc3C4(C)C)cnc12` [Example 160] gave a pEC50 of 7.90. With `COc1nccn2c(-c3cc4c(c5c3CNC5=O)Nc3ccc(N5CCOC6(CC6)C5)cc3C4(C)C)cnc12` [Example 201] the pEC50 was 8.57. In the case of `CC1(C)c2cc(N3CCOC(C(C)(C)O)C3)ccc2Nc2c1cc(-c1cncc3c1OCCN3)c1c2C(=O)NC1` (stereo not drawn) [Example 111], the pEC50 was 7.51. With `CC1(C)c2cc(N3CC(CO)OCC3=O)ccc2Nc2c1cc(-c1cnn3cccnc13)c1c2C(=O)NC1` (stereo not drawn) [Example 115] the pEC50 was 7.04. Compound `COC1CCn2c(-c3cc4c(c5c3CNC5=O)Nc3ccc(N5CCOCC5)cc3C4(C)C)cnc21` (single isomer, unassigned) [Example 229] has a pEC50 of 7.85.
